Laboratory results taken from patent US10980769B2, “Tiglien-3-one derivatives” (QBIOTICS PTY LTD, priority 2005, dated 2021).
Entries after “also recorded” stand apart in the source; their conditions may differ.

Assays:
Haemonchus contortus = test: NemaTOX (Ne) anthelmintic larval development bioassay
Experimental: NemaTOX (alternatively referred to herein as Ne) is an anthelmintic bioassay, applicable to all parasitic nematodes with free-living life cycle stages, and can be used as a screen to detect activity and define the species spectrum of compounds against parasitic nematodes and examine the impact of pre-existing resistance to other anthelmintic classes on potency. Haemonchus contortus was utilised for this assay.
The effect on larval development was determined in this assay by the method described by Gill et al. (1995) Int. J. Parasitol. 25: 463-470. Briefly, in this assay nematode eggs were applied to the surface of an agar matrix containing the test sample and allowed to develop through to the L3, infective stage (6 days). At this time the stage of larval development reached and any unusual features (deformity, paralysis, toxicity) were noted by microscopic examination.

Bacillus subtilis = test: ProTOX (Bs) antibacterial bioassay; assay type: cell-based
Source text: ProTOX, (alternatively referred to herein as Bs) is an antibacterial bioassay, broadly applicable to most aerobic and anaerobic bacteria. The bioassay features a solid phase agar base into which the test compound has been incorporated together with a chromogen. As the bacteria multiply in the well, the chromogen is metabolised from blue in a two-step process to a colourless compound. Compounds with potent bactericidal activity inhibit bacterial metabolism of the chromogen while bacteriostatic compounds induce limited metabolism as indicated by an intermediate pink colour. ProTOX is broadly applicable to a range of gram-positive and gram-negative bacteria under aerobic and microaerophilic conditions. ProTOX assays were carried out using Bacillus subtilis.
Briefly, in ProTOX, the bacteria (24 hour broth) were applied to the surface of an agar matrix containing the test sample and allowed to grow for 48 hours. The assay was monitored at 24 and 48 hours and the active wells noted. Known antibiotics yield consistent colour transitions which are concentration and time dependent. These patterns provide an important guide to the early recognition of interesting characteristics.

Trichophyton rubrum = test: MycoTOX (Tr) antifungal bioassay; assay type: cell-based
Experimental: MycoTOX (alternatively referred to herein as Tr) is a non-chromogenic bioassay used to detect activity against filamentous fungal pathogens of plants and animals. The bioassay features a solid phase agar base into which the test compound has been incorporated. As the growth patterns of filamentous fungi are readily apparent on the agar surface the extent of mycelial growth, sporulation (if relevant to the species under investigation) and colour changes with maturation are measured.
MycoTOX, involves a fungus (spore suspension or mycelial fragments) being applied to the surface of an agar matrix containing the test chemical and allowed to grow for a period of up to a week (depending on species). The assay is monitored at two discrete times to identify key development phases in the life cycle (for example mycelial growth and extent of sporulation) and the active wells noted. The monitoring times are dependent on the fungal species under investigation.
The MycoTOX assays were carried out using Trichophyton rubrum. The MycoTOX test is alternatively referred to as Tr to indicate the use of Trichophyton rubrum.

[1] = test system: NS1 murine myeloma cell line; test: CyTOX (Cy) chromogenic cytotoxicity bioassay; assay type: cell-based; settings: for Cy LD99: weight of chemical in last well with activity, real value may be lower
Source text: CyTOX (alternatively referred to herein as Cy) is a microtitre plate bioassay use to identify potential antitumour actives. CyTOX is a chromogenic bioassay with broad application to a wide range of tumour and non-tumour cell lines.
CyTOX features a liquid media into which the test compound has been incorporated together with a novel chromogen. As the cells grow and divide the chromogen is metabolised from purple in a single step process to a colourless metabolite. CyTOX was undertaken using NS1 murine myeloma cell line as a guide to mammalian cell toxicity.
Briefly, in CyTOX the cells were applied to the media containing the test chemical and allowed to grow for 72 hours. The assay was monitored at 24, 48 and 72 hours and the active wells identified.

fly eggs = test: DipteraTOX fly development bioassay; design: key: A value of A in DipG, Dip P or Dip H represents very active; a value of P represents active; settings: 250 μg per mL in agar
Experimental: DipteraTOX is referred to herein as DipG, DipP and DipH. DipG represents no grazing of larva. DipP represents no pupae formation and Dip H represents no hatching of flies. A value of A in DipG, Dip P or Dip H represents very active and a value of P represents active. In DipteraTox the fly eggs were applied to the surface of an agar matrix containing 250 μg per mL of the test chemical and allowed to hatch, develop and pupate for a period up of two weeks. The assay was monitored at two discrete times to determine the extent of grazing of the agar matrix at Week 1 and the presence of adult flies at Week 2.

Giardia spp. = test: TriTOX (Gi) anti-protozoan bioassay; assay type: cell-based
Experimental: is a microtitre plate based chromogenic bioassay for the screening of anti-protozoan activity of pathogenic, anaerobic/microaerophilic protozoans for example Giardia spp. and Trichomonas spp. The bioassays are run under anaerobic conditions and features species specific chromogens. The minimum inhibitory concentrations (approximate LD99) are determined by the following method: stock solutions of the unknowns are serially diluted ½ to give 12 concentrations over a 2,048-fold range. Aliquots of each concentration(s) are applied to the wells of 96-well microtitre plates and diluted with media. […] The lowest concentration at which the compound is active is noted as the minimum inhibitory concentration (MIC). Additionally, microscopic inspection is carried out to identify any patterns of morphological change that may be consistent with a type of toxicity and therefore mode of action. Giardia spp. was utilized for this assay.

human breast MCF-7 = test: Growth inhibition of cultured cells; assay type: cell-based; settings: human breast MCF-7
Experimental: (§1) Briefly, a range of tumour cells including mouse melanoma, human melanoma, mouse squamous cell carcinoma, human breast, human colon, human leukemia and human lung and normal human cells including normal human fibroblasts were seeded at 2-5,000 per microtitre well (96-well plate) in 10% FCS-RPMI 1640 culture medium, treated, and allowed to grow until the controls were nearly confluent (5-6 days). The wells were then washed twice with PBS, fix with ethanol for a minimum of 5 minutes and washed with water. SRB solution (50 μL of 0.4% in 1% acetic acid) was added and left at room temperature for a minimum of 15 minutes. The plate was washed rapidly with tap water and then twice with 1% acetic acid. After addition of 100 μL/well of 10 mM Tris base (unbuffered, pH>9), plates were left for a minimum of 5 minutes, then the absorbance was read at 564 nm on the ELISA reader, with a 3 second prior shaking. After subtraction of a blank (wells with no cells, absorbance typically about 0.04), growth inhibition was calculated as % of the untreated control and plotted against dose.
(§2) Briefly, a suspension of a range of tumour cells including mouse melanoma, human melanoma, mouse squamous cell carcinoma, human breast, human colon, human leukemia and human lung and normal human cells including normal human fibroblasts were seeded into round-bottom microtitre plates in 10% FCS-RPMI 1640 culture medium, treated and allowed to grow for 5-6 days. To measure cell growth, 20 μL of a combined MTS/PMS solution (Promega Cell ProliferationAssay Kit Cat #G5430) was added to each well of the 96 well assay plate. After 1-4 hours the plates were placed in the ELISA plate reader and the absorbance read at 490 nm. After subtraction of a blank (wells with no cells, absorbance typically about 0.4), growth inhibition was calculated as % of the untreated control and plotted against dose.
(§3) For growth inhibition assays, cells (2000-5000/well) were seeded in 96-well plates in duplicate, treated with drug next day and allowed to grow for a further 5-6 days. The plates were then washed in PBS (phosphate buffered saline, pH 7.2), fixed with ethanol and stained by addition of 50 μL 0.4% SRB (sulforhodamine) in 1% acetic acid. The plate was left at room temperature for a minimum of 15 minutes, then washed rapidly with tap water and then twice with 1% acetic acid. After addition of 100 μL/well of 10 mM Tris base (unbuffered, pH>9), plates were left for a minimum of 5 minutes, then the absorbance was read at 564 nm on the ELISA reader, with a 3 second prior shaking. After subtraction of a blank (wells with no cells, typically about 0.04), growth inhibition was calculated as % of the untreated control and plotted against dose.

human leukemia K562 = test: Growth inhibition of cultured cells; assay type: cell-based
Experimental: as §1, §2, §3

[2] = test system: normal human fibroblasts (NFF); test: Growth inhibition of cultured cells; assay type: cell-based
Experimental: as §1, §2, §3

human melanoma MM418c5 = test: Growth inhibition of cultured cells; assay type: cell-based
Experimental: as §1, §2

human prostate DU145 = test: Growth inhibition of cultured cells; assay type: cell-based
Experimental: as §1, §2

PKC = PKC activation in cultured tumour cells (scattering and growth inhibition of MCF7); assay type: cell-based, human; settings: defined by scattering and growth inhibition of MCF7 breast cancer cells
MM96L cell line = test: Changes in morphology of cultured cells; assay type: cell-based, human
MCF-7 = test: Cell scattering of cultured cells; assay type: cell-based, human
[3] = test system: K562 leukemia, MCF-7 breast cancer, Colo-205 colon cancer and D04 and SKMel-5 melanoma; test: In vitro growth inhibition profile, sensitive versus other cell lines; assay type: cell-based, human
Experimental: In addition, scattering of MCF-7 and HT-29 colon tumour cells was observed, typical of PKC activators. […] Additionally, given their similarity in structure, EBI-47, EBI-59 and EBI-61 are also considered to be protein kinase C activators.
as §3, with “dose. […]” for “dose.”

[4] = weight of chemical in last well with activity, real value may be lower

Row | Molecule | Ne Titre (Haemonchus contortus) | Ne LD99 (Haemonchus contortus; [4]) | Bs Titre (Bacillus subtilis) | Tr Titre (Trichophyton rubrum) | Cy Titre [1] | Cy LD99 [1] | DipH (no hatching of flies) (fly eggs) | Gi Titre (Giardia spp.) | Gi LD99 (Giardia spp.; [4]) | Concentration of EB548.LA4.61-29/32 At which growth inhibition was observed (human breast MCF-7) | Concentration of EB548.LA4.61-29/32 At which growth inhibition was observed (human leukemia K562) | Concentration of EB548.LA4.61-29/32 At which growth inhibition was observed [2] | Concentration of EB548.LA4.61-29/32 At which growth inhibition was observed (human melanoma MM418c5) | Concentration of EB548.LA4.61-29/32 At which growth inhibition was observed (human prostate DU145) | PKC activity (PKC) | DipP (no pupae formation) (fly eggs) | change in morphology of MM96L cells (MM96L cell line) | scattering of MCF-7 cells (MCF-7) | growth-inhibiting doses in sensitive cell lines lower than for other human tumour cell lines and normal human fibroblasts [3]
1 | CCC(C)C(=O)OC1C(C)C2(O)C(C3OC3(CO)C(O)C3(O)C(=O)C(C)=CC32)C2C(C)(C)C12OC(=O)C(C)CC (centres unmarked) [EBI-47, 12,13-di-(2-methylbutanoyl)-6,7-epoxy-4,5,9,12,13,20-hexahydroxy-tigliaen-3-one] | 2 | 31 µg/mL | 0/— | 0/— | 4 | 16 µg/mL | P | 2 | 31 µg/mL | 0.03 µg/mL | 0.1 µg/mL | None observed at 10 μg/mL | 0.03 µg/mL | 10 µg/mL | yes | – | – | – | –
2 | CCCCC/C=C/C=C/C=C/C(=O)OC1C(C)C2(O)C(C3OC3(CO)C(O)C3(O)C(=O)C(C)=CC32)C2C(C)(C)C12OC(=O)C(C)CC (centres unmarked) [EBI-59, 12-(dodeca-2,4,6-trienoyl)-13-(2-methylbutanoyl)-6,7-epoxy-4,5,9,12,13,20-hexahydroxy-1-tigliaen-3-one] | 0/— | – | 0/— | 0/— | 16 | 3.9 µg/mL | A/A | – | – | – | – | – | – | – | yes | A/A | – | – | –
3 | tetradecanoyl phorbol acetate [TPA, reference compound] | – | – | – | – | – | – | – | – | – | – | – | – | – | – | – | – | characteristic change to bipolar morphology; also recorded: extreme bipolar morphology | scattering | approximately 100 fold
